Measurements published in patent US20160304957A1, “TREATMENT AND MODULATION OF GENE EXPRESSION AND SKIN AGING” (DSM NUTRITIONAL PRODUCTS LTD., priority 2006, published 2016).

Experiments:
Type in all cases: cell-based, human
MMP-10 = test: QRT-PCR gene expression in HaCaT cells with or without UVA
Method: (§1) HaCaT cells were obtained from Prof. Fusenig, German Cancer Research Centre, Heidelberg. […] The accuracy of cell counting was approximately 99%.
(§2) On day 3 of the experiment, cells were washed six times with Ca/Mg-free PBS containing 2% BSA, and then irradiated with light with a Hönle sun lamp Sol 500 (Dr. Hönle, Plannegg, Germany) at a dose of 270 kJ/m^2 in Ca/Mg-free PBS (2 hour exposure time at […]). The experimental schedule was chosen because the cells had optimal UVA sensitivity after 48 hours in culture. […] Confluent cultures were much less sensitive to irradiation.
(§3) After irradiation, the cells were supplied with fresh β-carotene-containing serum-free medium and kept in the incubator at 37° C., 5% CO2 until harvest of the samples. In experiments in which the half-life of ^1O2 was prolonged by D2O to enhance its effect, PBS was prepared in D2O, instead of in H2O, as it was done for the standard conditions described above. Cells were washed twice in D2O-PBS prior to irradiation in D2O-PBS. After irradiation, cells were maintained with fresh β-carotene-containing serum-free medium. Sham controls were treated in an identical manner, by placing them under the solar simulator but shielded from light.
(§4) Total RNA was isolated by using Trizol™ (Invitrogen, Basel, Switzerland) according to the instructions of the manufacturer. Random-primed cDNA was synthesized using the Superscript pre-amplification system for first strand cDNA synthesis (Invitrogen).
(§5) cDNA corresponding to 10 ng total RNA was used as template to quantify the relative RNA expression of the genes of interest by TaqMan® real time PCR.
(§6) The PCR analyses were carried out in triplicate and in a multiplex setup, using 18S rRNA as a calibrator gene. The rRNA primers were used at a final concentration of 50 nM, the probe at 100 nM. For quantification of the genes of interest, the primer concentrations were optimized for sensitivity of template detection. […] PCR reactions were carried out for 40 cycles of 95° C. for 15 seconds and 60° C. for 1 minute in an ABI7700 (Applied Biosystems, Rotkreuz, Switzerland). Regulation of gene expression was calculated as described in user bulletin #2 provided by the manufacturer. A threshold cycle (“CT”) is the first PCR cycle in which an amplification signal is detected. Expression levels are given as δCT values. The δCT value describes the level of gene expression as the average PCR cycle, in which the gene of interest was detected first (CT value), subtracted by the CT value of the calibrator gene 18S rRNA (CTgene of interest−CTcalibrating gene), 18S rRNA served as a measure for the amount of template in the reaction. Routinely, 18S rRNA was detected between PCR cycle 12 and 13 (SE=standard error) A low δCT corresponds to a high mRNA level.

MMP-1 [1] = test: as above
Method: as §1, §2, §3, §4, §5, §6

MMP-3 = test: as above
Method: as §1, §2, §3, §4, §5, §6

TIMP-1 = test: as above; conditions: vitamin E 50 μM
Method: as §1
Vitamin E (RRR-α-tocopherol; DSM Nutritional Products, Kaiseraugst, Switzerland) stock solutions and vitamin E-containing media were prepared as described for β-carotene-containing solutions, except that vitamin E was dissolved in ethanol. In experiments addressing the vitamin E effect, vitamin E was used in a final concentration of 50 μM. Again, the solvent concentration was kept constant at 0.03% ethanol for all conditions.
as §2, with “irradiation. […]” for “irradiation.”
as §5
The PCR analyses were carried out in triplicate and in a multiplex setup, using 18S rRNA as a calibrator gene. […] For quantification of the genes of interest, the primer concentrations were optimized for sensitivity of template detection. […] Regulation of gene expression was calculated as described in user bulletin #2 provided by the manufacturer. A threshold cycle (“CT”) is the first PCR cycle in which an amplification signal is detected. […] The δCT value describes the level of gene expression as the average PCR cycle, in which the gene of interest was detected first (CT value), subtracted by the CT value of the calibrator gene 18S rRNA (CTgene of interest−CTcalibrating gene), 18S rRNA served as a measure for the amount of template in the reaction. Routinely, 18S rRNA was detected between PCR cycle 12 and 13 (SE=standard error) A low δCT corresponds to a high mRNA level.

MMP-1 [2] = test: ELISA of MMP-1 release into cell culture supernatant of HaCaT cells; conditions: 1, 10, or 100 nM RA; unpublished observations
Method: HaCaT cells were supplemented with 0.5, 1.5, or 3 μM β-carotene for 2 days prior to UVA (270 kJ/m^2) irradiation. MMP-1 and TIMP-1 secretion 24 hours after irradiation was analyzed by ELISA. Each condition was represented by three replicates in the experiment. Values are means±standard error.
Release of MMP-1, and TIMP-1 into cell culture supernatant was determined by ELISA at 24 hours after irradiation. MMP-1 and TIMP-1 release was measured using MMP-1 and TIMP ELISA from CALBIOCHEM (San Diego, Calif., USA). The ELISAs were performed according to the manufacturer's instructions.

[3] = vitamin E 50 μM with β-carotene 1.5 μM

Cc1c(C)c2c(c(C)c1O)CC[C@@](C)(CCC[C@H](C)CCC[C@H](C)CCCC(C)C)O2 [vitamin E, RRR-α-tocopherol]
cooperation with β-carotene in reducing UVA-induction of MMP-10 (MMP-10; [3]): did not cooperate
MMP-10 expression (MMP-10; vitamin E alone, 50 μM): no effect
cooperation with β-carotene in reducing UVA-induction of MMP-1 (MMP-1 [1]; [3]): did not cooperate
MMP-1 expression (MMP-1 [1]; vitamin E alone, 50 μM): no effect
cooperation with β-carotene in reducing UVA-induction of MMP-3 (MMP-3; [3]): did not cooperate
MMP-3 expression (MMP-3; vitamin E alone, 50 μM): no effect
UVA-suppressed TIMP-1 expression (TIMP-1): restored

CC1=C(/C=C/C(C)=C/C=C/C(C)=C/C(=O)O)C(C)(C)CCC1 [RA, retinoic acid]
UVA-induced MMP-1 secretion (MMP-1 [2]): no effect
